Measured values taken from ChEMBL document CHEMBL1667781, “Biological evaluation of KRIBB3 analogs as a microtubule polymerization inhibitor” (Bioorg Med Chem Lett, 2011).

Assay: Inhibition of tubulin polymerization for 70 mins by microtubule polymerization assay
Design: concentration or dose not given beside the values

Row | SMILES | inhibition [%]
1 | COc1ccc(-c2cnoc2-c2ccc(O)c(O)c2)cc1 | 65
2 | CCc1cc(-c2oncc2-c2ccc(OC)cc2)c(O)cc1OC | 52
3 | CCc1cc(-c2oncc2-c2ccc(O)cc2)c(O)cc1O | 134
4 | COc1ccc(-c2cnoc2-c2ccc(OC)c(O)c2)cc1 | 50
5 | COc1ccc(-c2cnoc2-c2ccc(O)cc2)cc1 | 80
6 | CCc1cc(-c2oncc2-c2ccc(O)cc2)c(O)cc1OC | 115

Further lines, results first:

Row | inhibition [%] | SMILES
7 | 128 | COc1ccc(-c2cnoc2-c2ccc(OC)c(OCc3ccccc3)c2)cc1
8 | 76 | COc1ccc(-c2cnoc2-c2cc(C)c(O)c(C)c2)cc1
9 | 79 | CCc1cc(-c2oncc2-c2ccc(OC)cc2)c(OCc2ccccc2)cc1OC
10 | 80 | COc1ccc(-c2cnoc2-c2ccc(OCc3ccccc3)c(OCc3ccccc3)c2)cc1
11 | 126 | COc1ccc(-c2cnoc2-c2cc(C)c(OCc3ccccc3)c(C)c2)cc1
